In patent publication US11427548B2 (Arvinas Operations, Inc., priority 2015, dated 2022):
Like-named read-outs stand apart in the source and are kept apart here.

Assays:
Androgen Receptor [1] = target: T1, Androgen Receptor (Homo sapiens, UniProt P10275+P40337, T878A); assay: Androgen Receptor ELISA assay (PathScan AR ELISA) in LNCaP cells: AR degradation, Dmax and DC50; assay type: cell-based; conditions: for DC50: concentration that caused 50% Androgen Receptor degradation; for Dmax: highest percentage of Androgen Receptor degradation observed
T1 construct: Compounds have been evaluated in this assay in LNCaP and/or VCaP cells utilizing similar protocols; endogenous in cells; host or cells: LNCaP cells
T1 sequence (P10275 whole entry T878A): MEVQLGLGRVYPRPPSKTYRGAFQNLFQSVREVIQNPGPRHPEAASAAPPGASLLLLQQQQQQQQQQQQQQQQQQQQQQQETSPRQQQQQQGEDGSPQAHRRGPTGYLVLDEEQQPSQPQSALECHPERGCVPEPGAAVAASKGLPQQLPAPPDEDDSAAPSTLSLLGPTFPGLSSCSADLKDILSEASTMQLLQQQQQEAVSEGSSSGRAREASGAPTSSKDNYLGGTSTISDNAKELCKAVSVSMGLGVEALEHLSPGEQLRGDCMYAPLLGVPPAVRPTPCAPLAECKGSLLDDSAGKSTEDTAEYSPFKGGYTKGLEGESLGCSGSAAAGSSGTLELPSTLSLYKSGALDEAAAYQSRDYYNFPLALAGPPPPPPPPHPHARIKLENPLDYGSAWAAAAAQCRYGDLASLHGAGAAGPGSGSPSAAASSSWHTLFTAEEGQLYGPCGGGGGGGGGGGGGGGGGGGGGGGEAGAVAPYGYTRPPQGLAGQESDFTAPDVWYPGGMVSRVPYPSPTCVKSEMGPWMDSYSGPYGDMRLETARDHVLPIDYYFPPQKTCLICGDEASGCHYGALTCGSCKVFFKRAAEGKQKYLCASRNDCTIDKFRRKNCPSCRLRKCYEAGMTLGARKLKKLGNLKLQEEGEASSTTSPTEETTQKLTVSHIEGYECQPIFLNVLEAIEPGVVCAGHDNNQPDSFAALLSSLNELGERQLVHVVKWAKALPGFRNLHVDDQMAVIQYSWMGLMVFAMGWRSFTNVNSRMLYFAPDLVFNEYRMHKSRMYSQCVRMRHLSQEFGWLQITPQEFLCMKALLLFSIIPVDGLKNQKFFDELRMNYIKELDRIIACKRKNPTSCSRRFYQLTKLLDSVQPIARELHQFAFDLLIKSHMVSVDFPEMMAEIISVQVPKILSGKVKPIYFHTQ
T1 sequence (P40337 whole entry): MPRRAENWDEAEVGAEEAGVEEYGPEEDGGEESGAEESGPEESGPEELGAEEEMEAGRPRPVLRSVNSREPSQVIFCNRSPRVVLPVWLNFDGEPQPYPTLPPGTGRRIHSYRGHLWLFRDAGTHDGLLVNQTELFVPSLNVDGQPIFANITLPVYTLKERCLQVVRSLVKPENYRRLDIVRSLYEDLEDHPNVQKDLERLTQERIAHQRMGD
T1 sequence (Q15369 whole entry partner): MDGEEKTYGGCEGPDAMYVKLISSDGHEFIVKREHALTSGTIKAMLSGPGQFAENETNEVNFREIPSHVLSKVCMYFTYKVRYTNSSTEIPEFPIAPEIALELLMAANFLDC
T1 sequence (Q15370 whole entry partner): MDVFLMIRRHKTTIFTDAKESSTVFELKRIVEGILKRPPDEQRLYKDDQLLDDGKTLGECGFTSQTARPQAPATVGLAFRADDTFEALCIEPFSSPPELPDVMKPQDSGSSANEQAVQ

Androgen Receptor [2] = target: T2, Androgen Receptor (Homo sapiens, UniProt P10275); assay: Androgen Receptor ELISA assay (PathScan AR ELISA) in VCaP cells: AR degradation, Dmax and DC50; assay type: cell-based; conditions: for DC50: read-out: VCaP DC50; for Dmax: VCaP, read-out: VCaP Dmax (%)
T2 construct: endogenous in cells; host or cells: VCaP cells
T2 sequence (P10275 1-920): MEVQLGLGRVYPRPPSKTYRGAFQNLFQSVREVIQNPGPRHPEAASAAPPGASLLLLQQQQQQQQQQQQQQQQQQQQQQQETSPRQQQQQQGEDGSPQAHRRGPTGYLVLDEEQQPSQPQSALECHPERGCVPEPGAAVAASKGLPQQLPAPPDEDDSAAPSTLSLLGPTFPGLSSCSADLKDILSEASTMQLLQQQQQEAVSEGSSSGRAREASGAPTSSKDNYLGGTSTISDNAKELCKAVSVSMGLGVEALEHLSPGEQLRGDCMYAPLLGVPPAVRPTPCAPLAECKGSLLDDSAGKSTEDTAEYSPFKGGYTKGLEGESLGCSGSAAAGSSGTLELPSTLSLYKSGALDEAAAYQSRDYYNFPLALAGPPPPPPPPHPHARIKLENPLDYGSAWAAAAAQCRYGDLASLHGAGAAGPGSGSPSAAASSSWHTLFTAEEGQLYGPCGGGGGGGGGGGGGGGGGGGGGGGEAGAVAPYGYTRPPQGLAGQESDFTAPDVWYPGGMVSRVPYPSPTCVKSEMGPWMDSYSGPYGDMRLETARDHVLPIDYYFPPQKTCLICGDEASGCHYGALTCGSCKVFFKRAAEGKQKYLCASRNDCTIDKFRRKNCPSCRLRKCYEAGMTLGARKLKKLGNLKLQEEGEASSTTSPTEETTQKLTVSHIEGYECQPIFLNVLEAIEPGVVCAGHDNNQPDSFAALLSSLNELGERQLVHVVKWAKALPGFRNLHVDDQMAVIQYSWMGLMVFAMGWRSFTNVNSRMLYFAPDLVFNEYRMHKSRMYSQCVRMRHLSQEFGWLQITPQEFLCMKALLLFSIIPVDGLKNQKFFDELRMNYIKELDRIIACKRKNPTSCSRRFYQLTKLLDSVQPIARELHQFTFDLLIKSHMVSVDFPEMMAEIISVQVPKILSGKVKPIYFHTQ
Outline: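 VCaP cells, 30,000/well, grown ≥3 days in phenol red-free RPMI with 5% charcoal-stripped FBS; compound added in 0.1% DMSO with 0.1 nM R1881, 7 half-log doses, 24 h. Lysate AR quantified by PathScan sandwich ELISA, HRP/TMB read at 450 nm, giving DC50 and Dmax.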

Row | SMILES | Dmax (Androgen Receptor [2]; VCaP cells, Table 36) | DC50 (Androgen Receptor [1]) | Dmax (Androgen Receptor [1]) | DC50 (Androgen Receptor [2]; VCaP cells, Table 36) | Dmax (Androgen Receptor [2])
1 | Cc1ncsc1-c1ccc(CNC(=O)[C@@H]2C[C@@H](O)CN2C(=O)[C@@H](NC(=O)COCCCOCCCCCOc2ccc(N3C(=S)N(c4ccc(C#N)c(C(F)(F)F)c4)C(=O)C3(C)C)cc2F)C(C)(C)C)cc1 [Example 3, (2S,4R)-1-[(2S)-2-[2-(3-{[5-(4-{3-[4-cyano-3-(trifluoromethyl)phenyl]-5,5-dimethyl-4-oxo-2-sulfanylideneimidazolidin-1-yl}-2-fluorophenoxy)pentyl]oxy}propoxy)acetamido]-3,3-dimethylbutanoyl]-4-hydroxy-N-{[4-(4-methyl-1,3-thiazol-5-yl)phenyl]methyl}pyrrolidine-2-carboxamide] |  | < 50 nM | > 71% |  | 
2 | Cc1ncsc1-c1ccc(CNC(=O)[C@@H]2C[C@@H](O)CN2C(=O)[C@@H](NC(=O)COCCCOCCCCCOc2ccc(N3C(=S)N(c4ccc([N+](=O)[O-])c(C(F)(F)F)c4)C(=O)C3(C)C)cc2)C(C)(C)C)cc1 [Example 5, (2S,4R)-1-[(2S)-2-[2-(3-{[5-(4-{5,5-dimethyl-3-[4-nitro-3-(trifluoromethyl)phenyl]-4-oxo-2-sulfanylideneimidazolidin-1-yl}phenoxy)pentyl]oxy}propoxy)acetamido]-3,3-dimethylbutanoyl]-4-hydroxy-N-{[4-(4-methyl-1,3-thiazol-5-yl)phenyl]methyl}pyrrolidine-2-carboxamide] |  | 51 to 500 nM | > 71% |  | 
3 | CC(=O)O[C@@H]1C[C@@H](C(=O)N[C@@H](C)c2ccc(-c3scnc3C)cc2)N(C(=O)[C@H](C(C)C)N2Cc3ccc(OCCN4CCN(c5ccc(C(=O)N[C@H]6C(C)(C)[C@H](Oc7ccc(C#N)c(Cl)c7)C6(C)C)cn5)CC4)cc3C2=O)C1 [Example 857, (3R,5S)-1-((S)-2-(6-(2-(4-(5-(((1r,3r)-3-(3-chloro-4-cyanophenoxy)-2,2,4,4-tetramethylcyclobutyl)carbamoyl)pyridin-2-yl)piperazin-1-yl)ethoxy)-1-oxoisoindolin-2-yl)-3-methylbutanoyl)-5-(((S)-1-(4-(4-methylthiazol-5-yl)phenyl)ethyl)carbamoyl)pyrrolidin-3-yl acetate] |  |  |  | > 501 nM | < 25%
4 | Cc1ncsc1-c1ccc([C@H](C)NC(=O)[C@H]2C[C@H](O)CN2C(=O)[C@@H](NC(=O)CN2C3CCC2CN(CCCCc2ccc(C(=O)N[C@H]4C(C)(C)[C@H](Oc5ccc(C#N)c(Cl)c5)C4(C)C)cc2)C3)C(C)(C)C)cc1 [Example 858, (2R,4S)-1-((2S)-2-(2-(3-(4-(4-(((1r,3r)-3-(3-chloro-4-cyanophenoxy)-2,2,4,4-tetramethylcyclobutyl)carbamoyl)phenyl)butyl)-3,8-diazabicyclo[3.2.1]octan-8-yl)acetamido)-3,3-dimethylbutanoyl)-4-hydroxy-N-((S)-1-(4-(4-methylthiazol-5-yl)phenyl)ethyl) pyrrolidine-2-carboxamide] |  |  |  | > 501 nM | < 25%
5 | Cc1ncsc1-c1ccc([C@H](C)NC(=O)[C@@H]2C[C@@H](O)CN2C(=O)[C@@H](NC(=O)CN[C@H]2C[C@H](N3CCN(c4ccc(C(=O)N[C@H]5C(C)(C)[C@H](Oc6ccc(C#N)c(Cl)c6)C5(C)C)cn4)CC3)C2)C(C)(C)C)cc1 [Example 860, N-((1r,3R)-3-(3-chloro-4-cyanophenoxy)-2,2,4,4-tetramethylcyclobutyl)-6-(4-((1S,3R)-3-((2-(((S)-1-((2S,4R)-4-hydroxy-2-(((S)-1-(4-(4-methylthiazol-5-yl)phenyl)ethyl)carbamoyl)pyrrolidin-1-yl)-3,3-dimethyl-1-oxobutan-2-yl)amino)-2-oxoethyl)amino)cyclobutyl)piperazin-1-yl)nicotinamide] |  |  |  | < 50 nM | 51 to 70%
6 | Cc1ncsc1-c1ccc([C@H](C)NC(=O)[C@@H]2C[C@@H](O)CN2C(=O)[C@@H](NC(=O)CN[C@H]2C[C@@H](N3CCN(c4ccc(C(=O)N[C@H]5C(C)(C)[C@H](Oc6ccc(C#N)c(Cl)c6)C5(C)C)cn4)CC3)C2)C(C)(C)C)cc1 [Example 861, N-((1r,3R)-3-(3-chloro-4-cyanophenoxy)-2,2,4,4-tetramethylcyclobutyl)-6-(4-((1R,3S)-3-((2-(((S)-1-((2S,4R)-4-hydroxy-2-(((S)-1-(4-(4-methylthiazol-5-yl)phenyl)ethyl)carbamoyl)pyrrolidin-1-yl)-3,3-dimethyl-1-oxobutan-2-yl)amino)-2-oxoethyl)amino)cyclobutyl)piperazin-1-yl)nicotinamide] |  |  |  | < 50 nM | 51 to 70%

Now from value to compound, other results behind:

Row | Dmax (Androgen Receptor [2]; VCaP cells, Table 36) | SMILES | DC50 (Androgen Receptor [1]) | Dmax (Androgen Receptor [1]) | DC50 (Androgen Receptor [2]; VCaP cells, Table 36) | Dmax (Androgen Receptor [2])
7 | > 71% | Cc1ncsc1-c1ccc([C@H](CO)NC(=O)[C@@H]2C[C@@H](O)CN2C(=O)[C@@H](NC(=O)CN2CCN(CCCCc3ccc(C(=O)N[C@H]4C(C)(C)[C@H](Oc5ccc(C#N)c(Cl)c5)C4(C)C)cc3)CC2)C(C)(C)C)cc1 [Example 859, (2S,4R)-1-((S)-2-(2-(4-(4-(4-(((1r,3r)-3-(3-chloro-4-cyanophenoxy)-2,2,4,4-tetramethylcyclobutyl)carbamoyl)phenyl)butyl)piperazin-1-yl)acetamido)-3,3-dimethylbutanoyl)-4-hydroxy-N-((R)-2-hydroxy-1-(4-(4-methylthiazol-5-yl)phenyl)ethyl) pyrrolidine-2-carboxamide] |  |  | < 50 nM | 
8 | > 71% | Cc1ncsc1-c1ccc([C@H](C)NC(=O)[C@@H]2C[C@@H](OC(=O)CCC(=O)O)CN2C(=O)[C@@H](NC(=O)COCCN2CCN(c3ccc(C(=O)N[C@H]4C(C)(C)[C@H](Oc5ccc(C#N)c(Cl)c5)C4(C)C)cn3)CC2)C(C)(C)C)cc1 [Example 862, 4-(((3R,5S)-1-((S)-2-(2-(2-(4-(5-(((1r,3r)-3-(3-chloro-4-cyanophenoxy)-2,2,4,4-tetramethylcyclobutyl)carbamoyl)pyridin-2-yl)piperazin-1-yl)ethoxy)acetamido)-3,3-dimethylbutanoyl)-5-(((S)-1-(4-(4-methylthiazol-5-yl)phenyl)ethyl)carbamoyl)pyrrolidin-3-yl)oxy)-4-oxobutanoic acid] |  |  | < 50 nM | 
9 | > 71% | [2H]C(Nc1ccc(C(=O)N[C@H]2C(C)(C)[C@H](Oc3ccc(C#N)c(Cl)c3)C2(C)C)cc1)C([2H])([2H])C([2H])([2H])C([2H])([2H])C([2H])([2H])OCC(=O)N[C@H](C(=O)N1C[C@H](O)C[C@H]1C(=O)N[C@@H](C)c1ccc(-c2scnc2C)cc1)C(C)(C)C (some centres unmarked) [Example 863] |  |  | < 50 nM | 
10 | < 25% | C/C(=N\OCCN1CCN(CC(=O)N[C@H](C(=O)N2C[C@H](O)C[C@H]2C(=O)N[C@@H](C)c2ccc(-c3scnc3C)cc2)C(C)(C)C)CC1)c1cc(C(=O)N[C@@H](C)Cn2ccc(-c3ccc(C#N)c(Cl)c3)n2)n[nH]1 [Example 864, N-((S)-1-(3-(3-Chloro-4-cyanophenyl)-1H-pyrazol-1-yl)propan-2-yl)-5-((E)-1-((2-(4-(2-(((S)-1-((2S,4R)-4-hydroxy-2-(((S)-1-(4-(4-methylthiazol-5-yl)phenyl)ethyl)carbamoyl)pyrrolidin-1-yl)-3,3-dimethyl-1-oxobutan-2-yl)amino)-2-oxoethyl)piperazin-1-yl)ethoxy)imino)ethyl)-1H-pyrazole-3-carboxamide] |  |  | < 50 nM | 
